Test results taken from US20080145313A1, “Compositions and Methods for the Treatment and Prevention of Neoplastic Disorders” (Genesis Research & Development Corporation Limited, priority 2006, published 2008).

Tested on: A549 cells
Assay: Growth inhibition of siRNA-transfected A549 cells, SYBR Green I DNA content
Format: cell-based, human
Settings: 10 nM siRNA; DNA content 96 hours after transfection
Experimental: A549 cells (human lung cancer cell line; ATCC No. CCL-185), SK-MeI-5 cells (human melanoma cell line; ATCC No. HTB-70), MCF-7 cells (human adenocarcinoma cell line; ATCC No. HTB-22), HCT-116 cells (colorectal carcinoma; ATCC CCL-247) and HCT-116 p53 null cells (derived from ATCC No. CCL-247; Bunz et al., Science 282:1497-1501, 1998) were cultured in RPMI 1640 medium with 10% v/v heat-inactivated fetal calf serum (FCS). Cells were seeded at a density of 5×10^4 cells/cm^2 in multi-well tissue culture plates. Sequences of Stealth™ siRNA duplexes (Invitrogen) targeting human ribonucleotide reductase subunit 1 (SEQ ID NO: 22) and subunit 2 (SEQ ID NO; 38) are given in SEQ ID NO: 4830-4832 (DNA), and SEQ ID NO: 5136-5138 (RNA) for RRM1, and SEQ ID NO: 5306-5308 (DNA), and SEQ ID NO: 5303-5305 (RNA) for RRM2. siRNAs were transfected at different concentrations into cells using Lipofectamine™ RNAiMAX transfection reagent (Invitrogen). Non-specific siRNA (SEQ ID NO: 4804 and 4805 (DNA), and SEQ ID NO: 5301 and 5302 (RNA)) were used as controls. The cellular DNA content was measured using a SYBR Green I-based fluorometric assay at 24, 48, 72 and 96 hours after transfection (120 hours for the MCF-7 cells), as follows. At the indicated time points following reverse transfection, cells were harvested and frozen at −80° C. overnight. Cells were thawed and cell lysis buffer (phosphate-buffered saline (PBS) containing 1% Triton X-100, pH 7) and SYBR Green I (1:10^5 V/V; Invitrogen) was added to the wells and incubated overnight in the dark at 4° C.
The following day, cell lysates were mixed thoroughly, and DNA fluorescence was measured with a Wallac Victor^2 plate reader (Turku, Finland) set at an excitation frequency of 485 nm and measuring emission at 535 nm.
To determine the duration of the knock-down effect of RRM1-targeting siRNA, A549 cells were reverse transfected with 1 or 10 nM RRM1-3 (SEQ ID NO: 4832 (DNA, and SEQ ID NO: 5138 (RNA)) or control siRNA (SEQ ID NO: 4804 (DNA), and SEQ ID NO: 5301 (RNA)), and growth followed over time. Growth inhibition was measured daily as described above for up to ten days. RRM1-3-mediated RRM1 silencing inhibited growth for at least 10 days post-transfection at both 1 and 10 nM (FIG. 11).
siRNA-mediated inhibition of cancer cell growth was determined in A549 cells as follows. A549 cells (human lung cancer cell line; ATCC No. CCL-185) were cultured in RPMI 1640 medium with 10% v/v heat-inactivated fetal calf serum. Cells were seeded at a density of 5×10^3 cells/cm^2 in multi-well tissue culture plates. Stealth™ siRNA duplexes (Invitrogen) targeting genes involved in cancer energy and metabolism pathways and listed in Table 9, were transfected at 10 nM into cells using Lipofectamine™ RNAiMAX transfection reagent (Invitrogen). Non-specific siRNA (SEQ ID NO: 4804 and 4805 (DNA), and SEQ ID NO: 5301 and 5302 (RNA)) were used as controls. The cellular DNA content was measured using a SYBR Green I-based fluorometric assay at 96 hours after transfection. The cells were harvested and frozen at −80° C. overnight. Cells were thawed and cell lysis buffer (phosphate-buffered saline (PBS) containing 1% Triton X-100, pH 7) and SYBR Green I (1:10^5 v/v; Invitrogen) was added to the wells and incubated overnight in the dark at 4° C. The following day, cell lysates were mixed thoroughly, and DNA fluorescence was measured with a Wallac Victor^2 plate reader (Turku, Finland) set at an excitation frequency of 485 nm and measuring emission at 535 nm.
Three different siRNAs were tested for each target gene. The average fluorescence units from three replicate wells, representing the amount of DNA per well, were used to determine the effect on growth inhibition. The results are given in Table 10 (energy and metabolism gene targets) and Table 11 (transporter gene targets).
siRNA-mediated RNAi was also determined on a panel of different cell lines. […]

Row | Substance | Growth Inhibition in A549 cells
1 | SEQ ID NO: 4838: siRNA targeting DHFR (chain 1 TTCTGGCAGAAGTTTATATTTCTCC; chain 2 UUCUGGCAGAAGUUUAUAUUUCUCC; chemistry not given here; one strand in two spellings) | + (inhibits by at least 50%)
2 | SEQ ID NO: 4839: siRNA targeting AK1 (chain 1 TTCTGCACGATCTTCTCACACTGGG; chain 2 UUCUGCACGAUCUUCUCACACUGGG; chemistry not given here; one strand in two spellings) | − (no growth inhibition with any siRNA)
3 | SEQ ID NO: 4840: siRNA targeting AK1 (chain 1 TAGCCATCAATCAGGAAGCCTTTGG; chain 2 UAGCCAUCAAUCAGGAAGCCUUUGG; chemistry not given here; one strand in two spellings) | + (inhibits by at least 50%)
4 | SEQ ID NO: 4841: siRNA targeting AK1 (chain 1 AAACTCTTCTCCTTGCTGCACCTCC; chain 2 AAACUCUUCUCCUUGCUGCACCUCC; chemistry not given here; one strand in two spellings) | − (no growth inhibition with any siRNA)
5 | SEQ ID NO: 4842: siRNA targeting NADSYN (chain 1 TAGCTGATCTGGTTCACGATGGTGC; chain 2 UAGCUGAUCUGGUUCACGAUGGUGC; chemistry not given here; one strand in two spellings) | + (inhibits by at least 50%)
6 | SEQ ID NO: 4843: siRNA targeting NADSYN (chain 1 ATGAGCTGCAAACAGAGGGCTCTTC; chain 2 AUGAGCUGCAAACAGAGGGCUCUUC; chemistry not given here; one strand in two spellings) | − (no growth inhibition with any siRNA)
7 | SEQ ID NO: 4844: siRNA targeting NADSYN (chain 1 TTTCTATGCACCGAAACTGCCAAGG; chain 2 UUUCUAUGCACCGAAACUGCCAAGG; chemistry not given here; one strand in two spellings) | − (no growth inhibition with any siRNA)
8 | SEQ ID NO: 4845: siRNA targeting FLAD1 (chain 1 TTTGAGTGGAACTGAACAGCTGGGT; chain 2 UUUGAGUGGAACUGAACAGCUGGGU; chemistry not given here; one strand in two spellings) | + (inhibits by at least 50%)
9 | SEQ ID NO: 4846: siRNA targeting FLAD1 (chain 1 TGATGTGTATCCTCGGTCATACAGG; chain 2 UGAUGUGUAUCCUCGGUCAUACAGG; chemistry not given here; one strand in two spellings) | − (no growth inhibition with any siRNA)
10 | SEQ ID NO: 4847: siRNA targeting FLAD1 (chain 1 TGCAATGGTGGCTACCTCATCAGGT; chain 2 UGCAAUGGUGGCUACCUCAUCAGGU; chemistry not given here; one strand in two spellings) | − (no growth inhibition with any siRNA)
11 | SEQ ID NO: 4848: siRNA targeting COX5A (chain 1 ATAGCAGCGAACTGACTGGATAGCC; chain 2 AUAGCAGCGAACUGACUGGAUAGCC; chemistry not given here; one strand in two spellings) | ++ (inhibits by at least 75%)
12 | SEQ ID NO: 4849: siRNA targeting COX5A (chain 1 CAATTCCCAGGCATCTATATCTGGC; chain 2 CAAUUCCCAGGCAUCUAUAUCUGGC; chemistry not given here; one strand in two spellings) | − (no growth inhibition with any siRNA)
13 | SEQ ID NO: 4850: siRNA targeting COX5A (chain 1 ATTTAAAGTTGGTCTAAGTTCCTGG; chain 2 AUUUAAAGUUGGUCUAAGUUCCUGG; chemistry not given here; one strand in two spellings) | − (no growth inhibition with any siRNA)
14 | SEQ ID NO: 4851: siRNA targeting ATP5B (chain 1 TTTCCATGAACTCTGGAGCCTCAGC; chain 2 UUUCCAUGAACUCUGGAGCCUCAGC; Both strands are one antisense strand in DNA/RNA notation, chemistry not given here, further chemistry not given here; one strand in two spellings) | − (no growth inhibition with any siRNA)
15 | SEQ ID NO: 4852: siRNA targeting ATP5B (chain 1 AATCATTGCCTTCACGGGTCCTCTC; chain 2 AAUCAUUGCCUUCACGGGUCCUCUC; Both strands are one antisense strand in DNA/RNA notation, chemistry not given here, further chemistry not given here; one strand in two spellings) | − (no growth inhibition with any siRNA)
16 | SEQ ID NO: 4853: siRNA targeting ATP5B (chain 1 TATACCAGCGCTACCTTAGAGGTGG; chain 2 UAUACCAGCGCUACCUUAGAGGUGG; Both strands are one antisense strand in DNA/RNA notation, chemistry not given here, further chemistry not given here; one strand in two spellings) | + (inhibits by at least 50%)
17 | SEQ ID NO: 4854: siRNA targeting FASN (chain 1 ATGAAGCTCACCCAGTTATCCTTCC; chain 2 AUGAAGCUCACCCAGUUAUCCUUCC; Both strands are one antisense strand in DNA/RNA notation, chemistry not given here, further chemistry not given here; one strand in two spellings) | − (no growth inhibition with any siRNA)
18 | SEQ ID NO: 4855: siRNA targeting FASN (chain 1 TTGGAAGGCACATCCCAGAGGAAGT; chain 2 UUGGAAGGCACAUCCCAGAGGAAGU; Both strands are one antisense strand in DNA/RNA notation, chemistry not given here, further chemistry not given here; one strand in two spellings) | + (inhibits by at least 50%)
19 | SEQ ID NO: 4856: siRNA targeting FASN (chain 1 CTTCGATGTATTCAAATGACTCAGG; chain 2 CUUCGAUGUAUUCAAAUGACUCAGG; Both strands are one antisense strand in DNA/RNA notation, chemistry not given here, further chemistry not given here; one strand in two spellings) | − (no growth inhibition with any siRNA)
20 | SEQ ID NO: 4857: siRNA targeting ACLY (chain 1 ATAGTTTGCCAGCTCGTTGACACCC; chain 2 AUAGUUUGCCAGCUCGUUGACACCC; Both strands are one antisense strand in DNA/RNA notation, chemistry not given here, further chemistry not given here; one strand in two spellings) | + (inhibits by at least 50%)
